The results in this text go back to PubChem BioAssay AID334 (DTP/NCI, 2004).

Several values for one entry are separate records, joined by “and”; a condition that tells them apart may be missing. Equal values may be shown once. Inconclusive results and toxic doses are left out.

For the test, the system named is CD2F1 mice, intracerebral P388 leukemia, median survival T/C%. The test is described as follows: NCI In Vivo Anticancer Drug Screen. Data for tumor model P388 Leukemia (intracerebral) in CD2F1 (CDF1) mice. The note with it: endpoint: median survival time, higher = longer survival. How it is done: The antitumor activity of compounds was measured in mice bearing transplantable tumors. Survival or tumor size were measured and the results are expressed as the measurement made in the treated group (T) divided by the measurement made in the vehicle treated control group (C). The tumor model used in this assay is P388 Leukemia (intracerebral) in CD2F1 (CDF1) mice

[1] abbreviates: dose: 200.0 mg/kg/injection, schedule: Q01DX009 (ip), vehicle: saline.
Setting [2] is: dose: 100.0 mg/kg/injection, schedule: Q01DX009 (ip), vehicle: saline.

Take `Nc1nc(F)nc2c1ncn2C1OC(COP(=O)(O)O)C(O)C1O` (stereo unspecified): the T/C is 102 % of control (dose: 60.0 mg/kg/injection, schedule: Q01DX009 (ip), vehicle: saline); 111 % of control (dose: 90.0 mg/kg/injection, schedule: Q01DX009 (ip), vehicle: saline); 119 % of control (dose: 134.0 mg/kg/injection, schedule: Q01DX009 (ip), vehicle: saline); 205 % of control under setting [1].
Turning to `O=C1NC2(CCCCC2)C(=O)N1CCN(CCCl)CCCl`, the T/C (dose: 1.25 mg/kg/injection, schedule: Q01DX005 (iv), vehicle: clinical formulation) was 112 % of control; the T/C (dose: 1.25 mg/kg/injection, schedule: Q01DX009 (ip), vehicle: clinical formulation) was 103 % of control; the T/C (dose: 1.25 mg/kg/injection, schedule: Q01DX009 (ip), vehicle: saline with Tween-80) is 98 % of control; the T/C (dose: 1.5 mg/kg/injection, schedule: Q01DX009 (ip), vehicle: saline) was 107 % of control; the T/C (dose: 2.5 mg/kg/injection, schedule: Q01DX005 (iv), vehicle: clinical formulation) was 106 % of control; the T/C (dose: 2.5 mg/kg/injection, schedule: Q01DX009 (ip), vehicle: clinical formulation) was 101 % of control. For the same compound, the T/C was 110 % of control (dose: 2.5 mg/kg/injection, schedule: Q01DX009 (ip), vehicle: saline with Tween-80); 160 % of control (dose: 5.0 mg/kg/injection, schedule: Q01DX005 (iv), vehicle: clinical formulation); 103 % of control (dose: 5.0 mg/kg/injection, schedule: Q01DX009 (ip), vehicle: clinical formulation); 112 % of control (dose: 5.0 mg/kg/injection, schedule: Q01DX009 (ip), vehicle: saline with Tween-80); 117 % of control (dose: 6.0 mg/kg/injection, schedule: Q01DX009 (ip), vehicle: saline); 124 % of control (dose: 10.0 mg/kg/injection, schedule: Q01DX009 (ip), vehicle: saline with Tween-80). For the same compound, where the note is “dose: 20.0 mg/kg/injection, schedule: Q01DX009 (ip), vehicle: saline with Tween-80”, the T/C is 103 % of control.
As for `COc1cccc2c1C(=O)c1c(O)c3c(c(O)c1C2=O)C[C@@](O)(C(=O)CO)C[C@@H]3OC1CC(N)C(O)C(C)O1` (stereo partly specified), the T/C (dose: 0.5 mg/kg/injection, schedule: Q01DX001 (ip), vehicle: saline) was 89 % of control; the T/C (dose: 1.0 mg/kg/injection, schedule: Q01DX001 (ip), vehicle: saline) is 98 % of control; the T/C (dose: 2.0 mg/kg/injection, schedule: Q01DX001 (ip), vehicle: saline) was 94 % of control; the T/C (dose: 4.0 mg/kg/injection, schedule: Q01DX001 (ip), vehicle: saline) was 90 % of control; the T/C (dose: 8.0 mg/kg/injection, schedule: Q01DX001 (ip), vehicle: saline) is 80 % of control; the T/C (dose: 16.0 mg/kg/injection, schedule: Q01DX001 (ip), vehicle: saline) was 91 % of control.
In the case of `CCCCCCCCCCCCCCCCCC(=O)N[C@@H](Cc1ccc(N(CCCl)CCCl)cc1)C(=O)NCCCCCC`, the T/C (dose: 2.12 mg/kg/injection, schedule: Q03HX008 (ip), vehicle: saline) was 105 % of control; the T/C (dose: 4.24 mg/kg/injection, schedule: Q03HX008 (ip), vehicle: saline) was 105 % of control; the T/C (dose: 8.48 mg/kg/injection, schedule: Q03HX008 (ip), vehicle: saline) was 105 % of control; the T/C (dose: 16.95 mg/kg/injection, schedule: Q03HX008 (ip), vehicle: saline) was 94 % of control; the T/C (dose: 33.9 mg/kg/injection, schedule: Q03HX008 (ip), vehicle: saline) was 105 % of control; the T/C (dose: 67.8 mg/kg/injection, schedule: Q03HX008 (ip), vehicle: saline) was 110 % of control.
For the compound `O=C1C(=O)c2ccccc2C(O)=C1CC=C(Cl)Cl`, the T/C is 102 % of control and 109 % of control (dose: 10.0 mg/kg/injection, schedule: Q01DX005 (ip), vehicle: Klucel (hydroxypropylcellulose) (HPC)); 96 % of control and 98 % of control (dose: 20.0 mg/kg/injection, schedule: Q01DX005 (ip), vehicle: Klucel (hydroxypropylcellulose) (HPC)); 104 % of control and 105 % of control (dose: 40.0 mg/kg/injection, schedule: Q01DX005 (ip), vehicle: Klucel (hydroxypropylcellulose) (HPC)); 100 % of control (dose: 80.0 mg/kg/injection, schedule: Q01DX005 (ip), vehicle: Klucel (hydroxypropylcellulose) (HPC)).
With `Cc1cn(C2CC(O)C(CO)O2)c(=O)[nH]c1=O` (stereo unspecified), the T/C was 98 % of control and 104 % of control (dose: 100.0 mg/kg/injection, schedule: Q01DX009 (ip), vehicle: saline with Tween-80); 93 % of control and 102 % of control under setting [2]; 108 % of control and 109 % of control (dose: 200.0 mg/kg/injection, schedule: Q01DX009 (ip), vehicle: saline with Tween-80); 97 % of control and 109 % of control under setting [1]; 101 % of control and 109 % of control (dose: 400.0 mg/kg/injection, schedule: Q01DX009 (ip), vehicle: saline with Tween-80); 94 % of control and 111 % of control (dose: 400.0 mg/kg/injection, schedule: Q01DX009 (ip), vehicle: saline). The T/C is 114 % of control and 111 % of control (dose: 800.0 mg/kg/injection, schedule: Q01DX009 (ip), vehicle: saline with Tween-80); 104 % of control and 105 % of control (dose: 800.0 mg/kg/injection, schedule: Q01DX009 (ip), vehicle: saline); 93 % of control and 101 % of control (dose: 1600.0 mg/kg/injection, schedule: Q01DX009 (ip), vehicle: saline with Tween-80).
For the compound `CCC(=O)O[C@H]1CC[C@H]2[C@@H]3CCC4=CC(=O)CC[C@]4(C)[C@H]3CC[C@]12C`, the T/C was 105 % of control (dose: 8.0 mg/kg/injection, schedule: Q01DX009 (ip), vehicle: saline with Tween-80); 178 % of control (dose: 8.0 mg/kg/injection, schedule: Q01DX009 (ip), vehicle: saline); 108 % of control (dose: 16.0 mg/kg/injection, schedule: Q01DX009 (ip), vehicle: saline with Tween-80); 106 % of control (dose: 16.0 mg/kg/injection, schedule: Q01DX009 (ip), vehicle: saline); 105 % of control (dose: 32.0 mg/kg/injection, schedule: Q01DX009 (ip), vehicle: saline with Tween-80); 99 % of control (dose: 32.0 mg/kg/injection, schedule: Q01DX009 (ip), vehicle: saline). The T/C (dose: 64.0 mg/kg/injection, schedule: Q01DX009 (ip), vehicle: saline with Tween-80) is 117 % of control; the T/C (dose: 64.0 mg/kg/injection, schedule: Q01DX009 (ip), vehicle: saline) is 100 % of control; the T/C (dose: 128.0 mg/kg/injection, schedule: Q01DX009 (ip), vehicle: saline with Tween-80) is 100 % of control; the T/C (dose: 128.0 mg/kg/injection, schedule: Q01DX009 (ip), vehicle: saline) was 100 % of control; the T/C (dose: 256.0 mg/kg/injection, schedule: Q01DX009 (ip), vehicle: saline with Tween-80) is 107 % of control; the T/C (dose: 256.0 mg/kg/injection, schedule: Q01DX009 (ip), vehicle: saline) was 100 % of control. The T/C reads like this: (dose: 512.0 mg/kg/injection, schedule: Q01DX009 (ip), vehicle: saline with Tween-80) 106 % of control; (dose: 512.0 mg/kg/injection, schedule: Q01DX009 (ip), vehicle: saline) 109 % of control.
Consider `O=C1C=C(N2CC2)C(=O)C=C1N1CC1`, for which the T/C is 104 % of control and 105 % of control and 106 % of control (dose: 0.12 mg/kg/injection, schedule: Q01DX009 (ip), vehicle: saline); 100 % of control and 101 % of control and 105 % of control (dose: 0.25 mg/kg/injection, schedule: Q01DX009 (ip), vehicle: saline); 105 % of control and 107 % of control and 111 % of control (dose: 0.5 mg/kg/injection, schedule: Q01DX009 (ip), vehicle: saline); 92 % of control and 93 % of control and 100 % of control (dose: 1.0 mg/kg/injection, schedule: Q01DX009 (ip), vehicle: saline).
`CC(=O)NNC(=O)c1ccccn1`: the T/C is, setting by setting: (dose: 100.0 mg/kg/injection, schedule: Q01DX005 (ip), vehicle: Klucel (hydroxypropylcellulose) (HPC)) 116 % of control and 100 % of control; (dose: 200.0 mg/kg/injection, schedule: Q01DX005 (ip), vehicle: Klucel (hydroxypropylcellulose) (HPC)) 113 % of control and 100 % of control.
As to `Nc1ncn(C2OC(CO)C(O)C2O)c(=O)n1` (stereo unspecified), the T/C is, setting by setting: (dose: 12.5 mg/kg/injection, schedule: Q01DX009 (ip), vehicle: saline) 219 % of control; (dose: 25.0 mg/kg/injection, schedule: Q01DX009 (ip), vehicle: saline) 230 % of control; (dose: 50.0 mg/kg/injection, schedule: Q01DX009 (ip), vehicle: saline) 290 % of control; under setting [2], 303 % of control; under setting [1], 303 % of control.
Turning to `C[n+]1c2ccccc2nc2c(N)cc(N)cc21`, the T/C (dose: 4.0 mg/kg/injection, schedule: Q01DX005 (ip), vehicle: suspension in saline) is 114 % of control and 97 % of control; the T/C (dose: 8.0 mg/kg/injection, schedule: Q01DX005 (ip), vehicle: suspension in saline) is 94 % of control and 103 % of control; the T/C (dose: 16.0 mg/kg/injection, schedule: Q01DX005 (ip), vehicle: suspension in saline) is 104 % of control and 106 % of control; the T/C (dose: 32.0 mg/kg/injection, schedule: Q01DX005 (ip), vehicle: suspension in saline) was 102 % of control and 108 % of control.
